Reference: US12077503B2, “Substituted cyclic amides and their use as herbicides” (FMC CORPORATION, priority 2015, dated 2024)
Read-outs that look alike come from different tables or passages of the source.

Columns and labels:
Format in all cases: in vivo
[1] = system: Kochia (Kochia scoparia); test: Test A postemergence; conditions: Bassia scoparia, post-emergence, 240 h; for pest or weed control at 125 g/ha: 125 g ai/ha
In short: (§1)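 In a loam soil and sand blend, planted seeds got a preemergence directed soil spray, and young plants at the one- to two-leaf stage, 2–10 cm high, got a postemergence application; ~10 d greenhouse hold; injury rated visually, 0 = none, 100 = complete control.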

[2] = system: corn (Zea mays); test: Test A postemergence; conditions: Zea mays, post-emergence, 240 h; for Corn plant response rating (crop injury, 0 = no effect, 100 = complete kill) at 125 g/ha: 125 g ai/ha, Postemergence, visual injury after approximately 10 d, 0 to 100 scale where 0 is no effect and 100 is complete control
In short: as §1

[3] = system: ragweed (common ragweed, Ambrosia elatior); test: Test A postemergence; conditions: Ambrosia artemisiifolia, post-emergence, 240 h; for pest or weed control at 125 g/ha: 125 g ai/ha
In short: as §1

[4] = system: barnyardgrass (Echinochloa crus-galli); test: Test A postemergence; conditions: Echinochloa crus-galli, post-emergence, 240 h, read-out: Plant response rating, Barnyardgrass; for pest or weed control at 125 g/ha: 125 g ai/ha, Postemergence, visual injury after approximately 10 d, 0 to 100 scale where 0 is no effect and 100 is complete control
In short: as §1

[5] = system: ryegrass, Italian (Italian ryegrass, Lolium multiflorum); test: Test A postemergence; conditions: Lolium multiflorum, post-emergence, 240 h; for pest or weed control at 125 g/ha: 125 g ai/ha
In short: as §1

[6] = system: blackgrass (Alopecurus myosuroides); test: Test A postemergence; conditions: Alopecurus myosuroides, post-emergence, 240 h, read-out: Plant response rating, Blackgrass; for pest or weed control at 125 g/ha: 125 g ai/ha, Postemergence, visual injury after approximately 10 d, 0 to 100 scale where 0 is no effect and 100 is complete control
In short: as §1

[7] = system: Galium (catchweed bedstraw, Galium aparine); test: Test A postemergence; conditions: Galium, post-emergence, 240 h; for pest or weed control at 125 g/ha: 125 g ai/ha
In short: as §1

[8] = system: wheat (Triticum aestivum); test: Test A postemergence; conditions: Triticum aestivum, post-emergence, 240 h; for plant injury at 125 g/ha: 125 g ai/ha
In short: as §1

[9] = system: giant foxtail (Setaria faberii); test: Test A postemergence; conditions: Setaria faberi, post-emergence, 240 h; for pest or weed control at 125 g/ha: 125 g ai/ha
In short: as §1

[10] = system: Kochia (Kochia scoparia); test: Test A preemergence; conditions: Bassia scoparia, pre-emergence, 240 h; for pest or weed control at 125 g/ha: 125 g ai/ha, Preemergence, visual injury rating after approximately 10 d, read-out: Kochia plant response rating (0 to 100 scale, 0 is no effect, 100 is complete control); for pest or weed control at 500 g/ha: 500 g ai/ha, preemergence, visual injury rating about 10 d after treatment, 0 to 100 scale (0 no effect, 100 complete control), read-out: Kochia plant response rating
In short: as §1

[11] = system: ragweed (common ragweed, Ambrosia elatior); test: Test A preemergence; conditions: Ambrosia artemisiifolia, pre-emergence, 240 h; for pest or weed control at 125 g/ha: 125 g ai/ha, Preemergence, visual injury rating after approximately 10 d, read-out: Ragweed plant response rating (0 to 100 scale, 0 is no effect, 100 is complete control); for pest or weed control at 500 g/ha: 500 g ai/ha, preemergence, visual injury rating about 10 d after treatment, 0 to 100 scale (0 no effect, 100 complete control), read-out: Ragweed plant response rating
In short: as §1

[12] = system: barnyardgrass (Echinochloa crus-galli); test: Test A preemergence; conditions: Echinochloa crus-galli, pre-emergence, 240 h; for pest or weed control at 125 g/ha: 125 g ai/ha, Preemergence, visual injury rating after approximately 10 d, read-out: Barnyardgrass plant response rating (0 to 100 scale, 0 is no effect, 100 is complete control); for pest or weed control at 500 g/ha: 500 g ai/ha, preemergence, visual injury rating about 10 d after treatment, 0 to 100 scale (0 no effect, 100 complete control), read-out: Barnyardgrass plant response rating
In short: as §1

[13] = system: ryegrass, Italian (Italian ryegrass, Lolium multiflorum); test: Test A preemergence; conditions: Lolium multiflorum, pre-emergence, 240 h; for pest or weed control at 125 g/ha: 125 g ai/ha, Preemergence, visual injury rating after approximately 10 d, read-out: Ryegrass, Italian plant response rating (0 to 100 scale, 0 is no effect, 100 is complete control); for pest or weed control at 500 g/ha: 500 g ai/ha, preemergence, visual injury rating about 10 d after treatment, 0 to 100 scale (0 no effect, 100 complete control), read-out: Ryegrass, Italian plant response rating
In short: as §1

[14] = system: pigweed (Amaranthus retroflexus); test: Test A preemergence; conditions: Amaranthus retroflexus, pre-emergence, 240 h; for pest or weed control at 125 g/ha: 125 g ai/ha, Preemergence, visual injury rating after approximately 10 d, read-out: Pigweed plant response rating (0 to 100 scale, 0 is no effect, 100 is complete control); for pest or weed control at 500 g/ha: 500 g ai/ha, preemergence, visual injury rating about 10 d after treatment, 0 to 100 scale (0 no effect, 100 complete control), read-out: Pigweed plant response rating
[15] = system: giant foxtail (Setaria faberii); test: Test A preemergence; conditions: Setaria faberi, pre-emergence, 240 h; for pest or weed control at 125 g/ha: 125 g ai/ha, Preemergence, visual injury rating after approximately 10 d, read-out: Foxtail, Giant plant response rating (0 to 100 scale, 0 is no effect, 100 is complete control); for pest or weed control at 500 g/ha: 500 g ai/ha, preemergence, visual injury rating about 10 d after treatment, 0 to 100 scale (0 no effect, 100 complete control), read-out: Foxtail, Giant plant response rating
In short: as §1

[16] = 500 g ai/ha, postemergence, visual injury, 0 to 100 scale (0 no effect, 100 complete control), approx. 10 d

SMILES | Corn plant response rating (crop injury, 0 = no effect, 100 = complete kill) at 125 g/ha [2] | pest or weed control at 125 g/ha [4] | pest or weed control at 125 g/ha [6] | pest or weed control at 125 g/ha [10] | pest or weed control at 500 g/ha [10] | pest or weed control at 125 g/ha [11] | pest or weed control at 500 g/ha [11] | pest or weed control at 125 g/ha [12] | pest or weed control at 500 g/ha [12] | pest or weed control at 125 g/ha [13] | pest or weed control at 500 g/ha [13] | pest or weed control at 125 g/ha [14] | pest or weed control at 500 g/ha [14] | pest or weed control at 125 g/ha [15] | pest or weed control at 500 g/ha [15] | further results
CN1CC[C@H](c2ccc(OC(F)(F)F)cc2)[C@@H](C(=O)Nc2ccccc2C(F)(F)F)C1=O [Compound 998] | 0% | 0% | 0% | 0% | 0% | 0% | 0% | 0% | 0% | 0% | 0% | 0% | 0% | 0% | 0% | pest or weed control at 125 g/ha ([1]; Postemergence, visual injury after approximately 10 d, 0 to 100 scale where 0 is no effect and 100 is complete control, read-out: Plant response rating, Kochia): 0%; pest or weed control at 125 g/ha ([3]; Postemergence, visual injury after approximately 10 d, 0 to 100 scale where 0 is no effect and 100 is complete control, read-out: Plant response rating, Ragweed): 0%; pest or weed control at 125 g/ha ([5]; Postemergence, visual injury after approximately 10 d, 0 to 100 scale where 0 is no effect and 100 is complete control, read-out: Plant response rating, Ryegrass, Italian): 0%; pest or weed control at 125 g/ha ([7]; Postemergence, visual injury after approximately 10 d, 0 to 100 scale where 0 is no effect and 100 is complete control, read-out: Plant response rating, Galium): 0%; plant injury at 125 g/ha ([8]; Postemergence, visual injury after approximately 10 d, 0 to 100 scale where 0 is no effect and 100 is complete control, read-out: Plant response rating, Wheat): 0%; pest or weed control at 125 g/ha ([9]; Postemergence, visual injury after approximately 10 d, 0 to 100 scale where 0 is no effect and 100 is complete control, read-out: Plant response rating, Foxtail, Giant): 0%
CN1CC[C@H](c2ccccc2)[C@@H](C(=O)Nc2ccccc2F)C1=O [Compound 1032] | 0% | 0% | 0% | 0% | 0% | 0% | 0% | 20% | 70% | 0% | 0% | 0% | 0% | 0% | 70% | pest or weed control at 125 g/ha ([1]; postemergence, visual injury on 0 to 100 scale (0 no effect, 100 complete control), approx. 10 d, read-out: Kochia plant response rating): 0%; pest or weed control at 500 g/ha ([1]; 500 g ai/ha, postemergence, visual injury, 0 to 100 scale (0 no effect, 100 complete control), approx. 10 d, read-out: Plant response rating, Kochia): 0%; Corn plant response rating (crop injury, 0 = no effect, 100 = complete kill) at 500 g/ha [2, 16]: 0%; pest or weed control at 125 g/ha ([3]; postemergence, visual injury on 0 to 100 scale (0 no effect, 100 complete control), approx. 10 d, read-out: Ragweed plant response rating): 0%; pest or weed control at 500 g/ha ([3]; 500 g ai/ha, postemergence, visual injury, 0 to 100 scale (0 no effect, 100 complete control), approx. 10 d, read-out: Plant response rating, Ragweed): 0%; pest or weed control at 500 g/ha [4, 16]: 0%; pest or weed control at 125 g/ha ([5]; postemergence, visual injury on 0 to 100 scale (0 no effect, 100 complete control), approx. 10 d, read-out: Ryegrass, Italian plant response rating): 0%; pest or weed control at 500 g/ha ([5]; 500 g ai/ha, postemergence, visual injury, 0 to 100 scale (0 no effect, 100 complete control), approx. 10 d, read-out: Plant response rating, Ryegrass, Italian): 0%; pest or weed control at 500 g/ha [6, 16]: 0%; pest or weed control at 125 g/ha ([7]; postemergence, visual injury on 0 to 100 scale (0 no effect, 100 complete control), approx. 10 d, read-out: Galium plant response rating): 0%; pest or weed control at 500 g/ha ([7]; 500 g ai/ha, postemergence, visual injury, 0 to 100 scale (0 no effect, 100 complete control), approx. 10 d, read-out: Plant response rating, Galium): 0%; plant injury at 125 g/ha ([8]; postemergence, visual injury on 0 to 100 scale (0 no effect, 100 complete control), approx. 10 d, read-out: Wheat plant response rating): 0%; plant injury at 500 g/ha ([8]; 500 g ai/ha, postemergence, visual injury, 0 to 100 scale (0 no effect, 100 complete control), approx. 10 d, read-out: Plant response rating, Wheat): 0%; pest or weed control at 125 g/ha ([9]; postemergence, visual injury on 0 to 100 scale (0 no effect, 100 complete control), approx. 10 d, read-out: Foxtail, Giant plant response rating): 0%; pest or weed control at 500 g/ha ([9]; 500 g ai/ha, postemergence, visual injury, 0 to 100 scale (0 no effect, 100 complete control), approx. 10 d, read-out: Plant response rating, Foxtail, Giant): 0%
